The source of these data is patent US5243049A, “Certain pyrroloquinolinones: a new class of GABA brain receptor ligands” (Neurogen Corporation, priority 1992, dated 1993).

Molecules are shown by their SMILES.

The target in one test is GABAa receptor. The experiment in a line: Inhibition of 3H-RO15-1788 [3H-Flumazenil] binding to rat cortical tissue (GABAa receptor activity). The conditions noted are these: 0.5 nM 3H-RO15-1788, 30 min at 4° C., pH 7.4. The protocol: The pharmaceutical utility of compounds of this invention are indicated by the following assay for GABAa receptor activity.
Assays are carried out as described in Thomas and Tallman (J. Bio. Chem. 156: 9838-9842, J. Neurosci. 3:433-440, 1983). Rat cortical tissue is dissected and homogenized in 25 volumes (w/v) of 0.05M Tris HCl buffer (pH 7.4 at 4° C.). The tissue homogenate is centrifuged in the cold (4° C.) at 20,000×g for 20 minutes. The supernatant is decanted and the pellet is rehomogenized in the same volume of buffer and again centrifuged at 20,000×g. The supernatant is decanted and the pellet is frozen at -20° C. overnight. The pellet is then thawed and rehomogenized in 25 volume (original wt/vol) of buffer and the procedure is carried out twice. The pellet is finally resuspended in 50 volumes (w/vol of 0.05M Tris HCl buffer (pH 7.4 at 4° C.).
Incubations contain […] of radioligand 0.5 nM (^3 H-RO15-1788 [^3 H-Flumazenil] specific activity 80 Ci/mmol), drug or blocker and buffer to a total volume of […]. Incubations are carried for 30 min at 4° C. then are rapidly filtered through GFB filters to separate free and bound ligand. Filters are washed twice with fresh 0.05M Tris HCl buffer (pH 7.4 at 4° C.) and counted in a liquid scintillation counter. […] diazepam is added to some tubes to determine nonspecific binding. Data are collected in triplicate determinations, averaged and % inhibition of total specific binding is calculated. Total Specific Binding=Total-Nonspecific. In some cases, the amounts of unlabeled drugs is varied and total displacement curves of binding are carried out. Data are converted to a form for the calculation of IC50 and Hill Coefficient (nH).
The IC50 is the concentration that gives 50% inhibition. Read a high IC50 as lower potency. `O=C1c2c(c3ccccc3[nH]c2=O)C(=O)N1c1ccccc1` [Compound 1, 2'-Phenyl-pyrrolo[3,4-c]quinoline-1,3,4(5H)-trione] registered a half-maximal inhibitory concentration (IC50) of 36 nM. On the same count and under the same terms, then `COc1ccc(N2C(=O)c3c(c4ccccc4[nH]c3=O)C2=O)cc1` [Compound 2, 2-(4-Methoxyphenyl)-pyrrolo[3,4-c]quinoline-1,3,4(5H)-trione], with 400 nM; and `O=C1c2c(c3ccccc3[nH]c2=O)C(=O)N1c1ccccc1F` [Compound 4, 2-(2-Fluorophenyl)-pyrrolo[3,4-c]quinoline-1,3,4(5H)-trione], with 700 nM. Regarding `O=C1c2c(c3ccccc3[nH]c2=O)CN1c1ccccc1` [Compound 16, 2-Phenyl-pyrrolo[3,4-c]quinoline-3(1H),4(5H)-dione], the half-maximal inhibitory concentration (IC50) is 602 nM.

The next test has as its system benzodiazepine binding site / GABA receptor.
Experiment: not given
As to conditions: brain membranes; cited from earlier work.
For `CN1CCc2cc3c(cc2[C@H]1[C@@H]1OC(=O)c2c1ccc1c2OCO1)OCO3` [(+) bicuculline], the “Block of enhancement of benzodiazepine binding by GABA agonists” value is on record as “blocked”. Regarding `CN1CCc2cc3c(cc2[C@@H]1[C@H]1OC(=O)c2c1ccc1c2OCO1)OCO3` [(-) bicuculline], the “Block of enhancement of benzodiazepine binding by GABA agonists” value is given as “much less active”.
